Active and inactive are the calls of the source. No cut-off for these calls is given here.

Consider twelve molecules from ChEMBL document CHEMBL1795257, “Synthesis of new opioid derivatives with a propellane skeleton and their pharmacology: part 1” (Bioorg Med Chem Lett, 2011).

Assay [1] is described as follows: Displacement of [3H]NTI from delta opioid receptor in guinea pig forebrain homogenate by scintillation counting. It counts as tissue-based, Cavia porcellus, Brain. On the technique in general: In a radioligand displacement assay an active substance lowers the binding of a labelled ligand.
Assay [2] has as its target Kappa-type opioid receptor (Cavia porcellus, UniProt P41144). The assay can be described thus: Displacement of [3H]U69593 from kappa opioid receptor in guinea pig cerebellum homogenate by scintillation counting. The assay is classed as tissue-based.
Assay [3] concerns the target Mu-type opioid receptor (Cavia porcellus, UniProt P97266). The assay can be described thus: Displacement of [3H]DAMGO from mu opioid receptor in guinea pig forebrain homogenate by scintillation counting. The assay is classed as tissue-based, Brain.
The species entered for assay [4] is Cavia porcellus. In words: Selectivity ratio of Ki for delta opioid receptor in guinea pig forebrain homogenate to Ki for kappa opioid receptor in guinea pig cerebellum homogenate. It counts as tissue-based.
Assay [5] concerns Mus musculus. The assay can be described thus: Antinociceptive activity in sc dosed mouse assessed as inhibition of acetic acid-induced writhing in presence of kappa opioid antagonist nor-BNI. The assay is classed as functional, organism-based. In general terms: Writhing tests count abdominal constrictions after an irritant is injected.
Assay [6] relates to Mus musculus. In words: Antinociceptive activity in sc dosed mouse assessed as inhibition of acetic acid-induced writhing in presence of mu opioid […] naloxone. It counts as functional, organism-based.
In assay [7] the test system is Mus musculus. In words: Antinociceptive activity in sc dosed mouse assessed as inhibition of acetic acid-induced writhing. It counts as functional.

Kappa-type opioid receptor, sequence (P41144 whole entry): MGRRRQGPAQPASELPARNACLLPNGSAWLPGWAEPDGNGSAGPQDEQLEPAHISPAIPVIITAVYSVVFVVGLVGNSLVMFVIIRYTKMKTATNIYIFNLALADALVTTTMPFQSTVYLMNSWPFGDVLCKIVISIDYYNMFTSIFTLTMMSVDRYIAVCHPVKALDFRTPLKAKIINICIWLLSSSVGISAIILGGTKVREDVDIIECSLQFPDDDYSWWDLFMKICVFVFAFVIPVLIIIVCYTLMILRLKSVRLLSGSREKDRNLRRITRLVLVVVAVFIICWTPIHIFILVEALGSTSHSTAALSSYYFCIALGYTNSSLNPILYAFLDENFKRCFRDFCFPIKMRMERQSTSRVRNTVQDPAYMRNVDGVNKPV
Mu-type opioid receptor, sequence (P97266 whole entry): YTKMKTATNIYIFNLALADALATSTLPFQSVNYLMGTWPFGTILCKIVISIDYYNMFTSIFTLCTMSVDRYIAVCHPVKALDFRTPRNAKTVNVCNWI

Broadly, the Ki is a measure of affinity in units of concentration, obtained from inhibition or displacement. Lower therefore signals a stronger hold on the target. As to `Oc1ccc2c3c1OC1C4(O)CC[C@@]5(OC4)[C@@H](C2)N(CC2CC2)CC[C@]315` (some centres undefined), the results for the Ki in assay [1], in assay [2] and in assay [3] were 10.3 nM, 0.34 nM and 0.16 nM, respectively. Also, the Ratio Ki in assay [4] came to 30.
Regarding `CC(C)=CCN1CC[C@@]2(C)c3cc(O)ccc3C[C@@H]1[C@@H]2C`, the Ki in assay [1] was determined as 23.1 nM; in assay [2], 3.6 nM; in assay [3] it was 4.6 nM. In assay [4], the Ratio Ki was determined as 6.4.
With `CCC12CCN(CC3(O)CC3)[C@H](Cc3ccc(O)cc31)C2(C)C`, the Ki in assay [1] came out at 0.9 nM; in assay [3], 0.2 nM.
Usually ED50 stands for the dose that gives a 50% effect, or the effect in half of the subjects. Consider `O=C1CCC23Cc4ccc(O)cc4C2(CCN(CC2CC2)C3)C1` (centres undefined), for which the values for the Ki in assay [1], in assay [2] and in assay [3] were 448 nM, 17.4 nM and 58.2 nM, respectively. For the same molecule, the outcome in assay [5] and in assay [6] was inactive. Also, in assay [7], the 50% effective dose (ED50) is 0.86 mg/kg. Moreover, the Ratio Ki in assay [4] was 26.
Turning to `CN1CC[C@]23c4c5ccc(O)c4O[C@H]2C(=O)CC[C@@]3(O)[C@H]1C5` [OXYMORPHONE], in assay [1], the Ki came to 42.7 nM.
Regarding `O=C1CC23CCN(CC4CC4)C(Cc4ccc(O)cc42)C32CCC1O2` (centres undefined), in assay [4], the Ratio Ki was determined as 30.
Take `O=C1CCC23Cc4ccc(O)cc4C2(CCN(CC2(O)CC2)C3)C1` (centres undefined): the Ki in assay [1] came out at 500 nM; in assay [2], 21.7 nM; in assay [3], 77.7 nM. In assay [4], the Ratio Ki came out at 23.
As to `CN1CCC23CC(=O)CCC2(Cc2ccc(O)cc23)C1` (centres undefined), the results for the Ki in assay [1], in assay [2] and in assay [3] were 441 nM, 255 nM and 3.6 nM, respectively. In addition, the Ratio Ki in assay [4] amounted to 1.7.
For `OCC12CC[C@@]3(O1)[C@H]1Cc4ccc(O)cc4[C@@]3(CCN1CC1CC1)C2`, the Ratio Ki in assay [4] was 35.
On the same count and under the same terms, the same measure for `O=C1CC[C@@]2(O)[C@H]3Cc4ccc(O)c5c4[C@@]2(CCN3CC2CC2)[C@H]1O5`: 56.
For `CN1CC[C@]23c4c5ccc(O)c4O[C@H]2[C@@H](O)C=C[C@H]3[C@H]1C5`, the result in assay [7] was Active.
Take `O=C1CC[C@@]2(O)[C@H]3Cc4ccc(O)cc4[C@@]2(CCN3CC2CC2)C1`: the Ki amounted to 1.82 nM in assay [1], 0.038 nM in assay [2] and 0.14 nM in assay [3]. In addition, the Ratio Ki in assay [4] worked out at 48.
